{"source": "paper PMC4713475", "about": "“In Vivo Differences between Two Optical Isomers of Radioiodinated o-iodo-trans-decalinvesamicol for Use as a Radioligand for the Vesicular Acetylcholine Transporter” (PLoS ONE, 2016)", "key": {"[1]": {"target": "T1, VAChT (Rattus norvegicus, UniProt Q62666)", "T1 construct": "The rats were sacrificed 60 minutes after injection and their brains collected; from tissue; host or cells: brain of live male Sprague-Dawley rats (in vivo)", "T1 sequence (Q62666 1-530)": "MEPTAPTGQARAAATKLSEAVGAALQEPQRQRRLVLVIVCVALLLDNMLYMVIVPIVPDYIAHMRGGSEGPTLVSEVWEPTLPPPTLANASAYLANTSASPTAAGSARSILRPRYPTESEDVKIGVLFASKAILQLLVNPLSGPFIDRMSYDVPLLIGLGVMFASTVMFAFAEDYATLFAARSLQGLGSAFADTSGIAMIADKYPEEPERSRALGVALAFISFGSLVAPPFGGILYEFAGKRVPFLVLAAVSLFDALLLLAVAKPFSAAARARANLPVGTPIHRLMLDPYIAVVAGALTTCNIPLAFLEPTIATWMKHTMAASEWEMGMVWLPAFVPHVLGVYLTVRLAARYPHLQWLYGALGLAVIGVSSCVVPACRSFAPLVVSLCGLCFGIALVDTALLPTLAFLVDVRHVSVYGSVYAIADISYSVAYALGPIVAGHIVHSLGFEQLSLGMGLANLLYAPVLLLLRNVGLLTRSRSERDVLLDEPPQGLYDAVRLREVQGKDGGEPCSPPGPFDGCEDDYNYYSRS", "assay": "VAChT in vitro competitive binding with (-)-[3H]vesamicol in rat brain preparations", "conditions": "read-out: Ki VAChT"}, "[2]": {"target": "T2, σ-2 receptor (Rattus norvegicus, UniProt Q5U3Y7)", "T2 construct": "Rat liver preparations (about 100 μg protein) were incubated in quadruplicate; from tissue; host or cells: liver of male Sprague-Dawley rats", "T2 sequence (Q5U3Y7 1-176)": "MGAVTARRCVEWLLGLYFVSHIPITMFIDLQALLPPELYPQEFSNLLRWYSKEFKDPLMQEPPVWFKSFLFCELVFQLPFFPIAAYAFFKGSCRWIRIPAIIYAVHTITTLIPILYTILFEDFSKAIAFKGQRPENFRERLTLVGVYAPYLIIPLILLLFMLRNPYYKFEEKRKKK", "assay": "σ-2 receptor competitive binding with [3H]DTG in rat liver preparations", "conditions": "read-out: Ki σ-2", "method": "Rat brain and liver tissue preparations were prepared from dissected brains (not including the cerebellum) and livers from male Sprague-Dawley rats (250–300 g), as previously described[34].\nThe incubated samples were treated in the same manner as described for the σ-1 receptor binding assay.\n(§1) Ki values were calculated using Graphpad Prism (GraphPad Software, Inc. San Diego, USA)."}, "[3]": {"target": "σ-1 receptor (Rattus norvegicus, UniProt Q9R0C9)", "sequence (Q9R0C9 whole entry)": "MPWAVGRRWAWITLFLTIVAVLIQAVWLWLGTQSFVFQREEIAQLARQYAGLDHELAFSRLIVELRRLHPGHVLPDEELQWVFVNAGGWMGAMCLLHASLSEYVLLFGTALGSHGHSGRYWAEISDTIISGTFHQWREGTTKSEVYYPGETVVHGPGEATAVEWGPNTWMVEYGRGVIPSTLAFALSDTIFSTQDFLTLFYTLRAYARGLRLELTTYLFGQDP", "assay": "σ-1 receptor competitive binding with (+)-[3H]pentazocine in rat cerebrum preparations", "method": "The incubated samples were treated in the same manner as described for the VAChT binding assays, except that Whatman GF/B glass fiber filters were used.\nas §1"}, "[4]": {"parameters": "method as in PMID 24174343", "conditions": "previous report; cited from earlier work"}}, "note": "Where two headings read alike, the source gives them in different places."}
{"molecule": "O[C@@H]1C[C@H]2CCCC[C@@H]2C[C@H]1N1CCC(c2ccccc2I)CC1", "note": "[(-)-OIDV]", "values": [{"measurement": "Ki", "setting": "[1]", "value": "0.0221 ± 0.0043", "unit": "µM"}, {"measurement": "Ki", "setting": "[2]", "value": "0.0599 ± 0.0106", "unit": "µM"}, {"measurement": "Ki", "setting": "[3]", "value": "0.168 ± 0.0472", "unit": "µM"}]}
{"molecule": "OC1C[C@@H]2CCCC[C@H]2CC1N1CCC(c2ccccc2[125I])CC1", "note": "(mixture of isomers) [racemic [^125I]OIDV]", "values": [{"measurement": "radiolabeled metabolites in the brain", "setting": "[4]", "value": "unable to observe the presence of radiolabeled metabolites in the brain"}]}
{"molecule": "OC1CC2CCCCC2CC1N1CCC(c2ccccc2)CC1", "note": "(stereo not shown) [DV, decalinvesamicol]", "values": [{"measurement": "Ki", "setting": "[1]; rat brain preparations, (-)-[3H]vesamicol, 200 nM DTG to mask sigma receptors, 37°C 60 min, mean ± SD", "value": "0.0086 ± 0.0025", "unit": "µM"}, {"measurement": "Ki", "setting": "[2]; rat liver preparations, 5 nM [3H]DTG, 1 μM (+)-pentazocine to mask σ-1, 37°C 90 min, mean ± SD", "value": "0.0659 ± 0.0121", "unit": "µM"}, {"measurement": "Ki", "setting": "[3]; read-out: Ki σ-1, rat cerebrum preparations, 5 nM (+)-[3H]pentazocine, 37°C 90 min, mean ± SD", "value": "0.0744 ± 0.012", "unit": "µM"}]}
